Assays:
chickweed [1] = assay: Test Example 5: herbicidal effect by foliage application, plastic box (Table 20, symbol P); format: in vivo, common chickweed (Stellaria media); settings: foliage application, 320 g/ha, three weeks after application
In short: (§1)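 Foliar spray test: emulsion formulation diluted in water to a set application rate, sprayed onto 14-day-old plants raised in diluvial soil at 25° C to 30° C under glass. Both herbicidal effect and crop effect rated visually three weeks later.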

late watergrass = assay: Test Example 1: herbicidal activity, application before weed generation under submerged conditions (Table 16, symbol A); format: in vivo, late watergrass (Echinochloa oryzicola); settings: amount of applied herbicide 320 g/ha
In short: (§2)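 Submerged Wagner pots (alluvial soil, 4 cm water) sown with weed seeds and planted with 2.5-leaf rice seedlings; emulsifiable concentrate diluted in water applied to water surface on sowing day. Held in greenhouse at 25-30 °C; injury scored 0-5 by herbicidal rate after three weeks.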

Italian ryegrass [2] = assay: Test Example 4: herbicidal effect by soil treatment (Table 19, symbol K); format: in vivo, Italian ryegrass (Lolium multiflorum); settings: amount of applied herbicide 320 g/ha
In short: (§3)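 Step 1: sow seeds in sterilized diluvial soil, cover ~1.5 cm. Step 2: spray diluted emulsion onto soil surface at predetermined rate. Step 3: greenhouse, 25–30° C, three weeks. Step 4: grade effect on each plant by earlier criteria.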

false cleavers [3] = assay: Test Example 5: herbicidal effect by foliage application, plastic box (Table 20, symbol Q); format: in vivo, false cleavers (Galium spurium); settings: foliage application, 320 g/ha, three weeks after application
In short: as §1

wild oat [4] = assay: Test Example 4: herbicidal effect by soil treatment (Table 19, symbol I); format: in vivo, wild oat (Avena fatua); settings: amount of applied herbicide 320 g/ha
In short: as §3

Japanese bulrush = assay: Test Example 1: herbicidal activity, application before weed generation under submerged conditions (Table 16, symbol B); format: in vivo, Japanese bulrush (Schoenoplectus juncoides); settings: amount of applied herbicide 320 g/ha
In short: as §2

false cleavers [5] = assay: Test Example 4: herbicidal effect by soil treatment (Table 19, symbol Q); format: in vivo, false cleavers (Galium spurium); settings: amount of applied herbicide 320 g/ha
In short: as §3

velvetleaf [6] = assay: Test Example 4: herbicidal effect by soil treatment (Table 19, symbol M); format: in vivo, velvetleaf (Abutilon theophrasti); settings: amount of applied herbicide 320 g/ha
In short: as §3

Italian ryegrass [7] = assay: Test Example 5: herbicidal effect by foliage application, plastic box (Table 20, symbol K); format: in vivo, Italian ryegrass (Lolium multiflorum); settings: foliage application, 320 g/ha, three weeks after application
In short: as §1

chickweed [8] = assay: Test Example 4: herbicidal effect by soil treatment (Table 19, symbol P); format: in vivo, common chickweed (Stellaria media); settings: amount of applied herbicide 320 g/ha
In short: as §3

windgrass [9] = assay: Test Example 5: herbicidal effect by foliage application, plastic box (Table 20, symbol L); format: in vivo, windgrass (Apera spica-venti); settings: foliage application, 320 g/ha, three weeks after application
In short: as §1

oval-leafed pondweed = assay: Test Example 1: herbicidal activity, application before weed generation under submerged conditions (Table 16, symbol C); format: in vivo, oval-leafed pondweed (Monochoria vaginalis); settings: amount of applied herbicide 320 g/ha
In short: as §2

lambsquarters [10] = assay: Test Example 5: herbicidal effect by foliage application, plastic box (Table 20, symbol O); format: in vivo, lambsquarters (Chenopodium album); settings: foliage application, 320 g/ha, three weeks after application
In short: as §1

rice flat sedge = assay: Test Example 3: herbicidal effect by foliage application, Wagner pot (Table 18, symbol E); format: in vivo, rice flat sedge (Cyperus iria); settings: 320 g/ha
In short: (§4)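 Plants were sown in alluvial soil held under 0.1–0.5 cm standing water and grown 14 days in a greenhouse at 25–30 °C. An emulsifiable formulation, water-diluted to the set dose, was then sprayed onto the foliage, and effects were scored three weeks later using previously defined criteria.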

redroot pigweed [11] = assay: Test Example 4: herbicidal effect by soil treatment (Table 19, symbol N); format: in vivo, redroot pigweed (Amaranthus retroflexus); settings: amount of applied herbicide 320 g/ha
In short: as §3

windgrass [12] = assay: Test Example 4: herbicidal effect by soil treatment (Table 19, symbol L); format: in vivo, windgrass (Apera spica-venti); settings: amount of applied herbicide 320 g/ha
In short: as §3

persian speedwell [13] = assay: Test Example 5: herbicidal effect by foliage application, plastic box (Table 20, symbol R); format: in vivo, Persian speedwell (Veronica persica); settings: foliage application, 320 g/ha, three weeks after application
In short: as §1

persian speedwell [14] = assay: Test Example 4: herbicidal effect by soil treatment (Table 19, symbol R); format: in vivo, Persian speedwell (Veronica persica); settings: amount of applied herbicide 320 g/ha
In short: as §3

southern crabgrass [15] = assay: Test Example 4: herbicidal effect by soil treatment (Table 19, symbol F); format: in vivo, southern crabgrass (Digitaria ciliaris); settings: amount of applied herbicide 320 g/ha
In short: as §3

lambsquarters [16] = assay: Test Example 4: herbicidal effect by soil treatment (Table 19, symbol O); format: in vivo, lambsquarters (Chenopodium album); settings: amount of applied herbicide 320 g/ha
In short: as §3

green foxtail [17] = assay: Test Example 4: herbicidal effect by soil treatment (Table 19, symbol G); format: in vivo, green foxtail (Setaria viridis); settings: amount of applied herbicide 320 g/ha
In short: as §3

blackgrass [18] = assay: Test Example 5: herbicidal effect by foliage application, plastic box (Table 20, symbol J); format: in vivo, blackgrass (Alopecurus myosuroides); settings: foliage application, 320 g/ha, three weeks after application
In short: as §1

velvetleaf [19] = assay: Test Example 5: herbicidal effect by foliage application, plastic box (Table 20, symbol M); format: in vivo, velvetleaf (Abutilon theophrasti); settings: foliage application, 320 g/ha, three weeks after application
In short: as §1

barnyard grass [20] = assay: Test Example 3: herbicidal effect by foliage application, Wagner pot (Table 18, symbol H); format: in vivo, barnyard grass (Echinochloa crus-galli); settings: 320 g/ha
In short: as §4

southern crabgrass [21] = assay: Test Example 5: herbicidal effect by foliage application, plastic box (Table 20, symbol F); format: in vivo, southern crabgrass (Digitaria ciliaris); settings: foliage application, 320 g/ha, three weeks after application
In short: as §1

barnyard grass [22] = assay: Test Example 5: herbicidal effect by foliage application, plastic box (Table 20, symbol H); format: in vivo, barnyard grass (Echinochloa crus-galli); settings: foliage application, 320 g/ha, three weeks after application
In short: as §1

wild oat [23] = assay: Test Example 5: herbicidal effect by foliage application, plastic box (Table 20, symbol I); format: in vivo, wild oat (Avena fatua); settings: foliage application, 320 g/ha, three weeks after application
In short: as §1

blackgrass [24] = assay: Test Example 4: herbicidal effect by soil treatment (Table 19, symbol J); format: in vivo, blackgrass (Alopecurus myosuroides); settings: amount of applied herbicide 320 g/ha
In short: as §3

green foxtail [25] = assay: Test Example 5: herbicidal effect by foliage application, plastic box (Table 20, symbol G); format: in vivo, green foxtail (Setaria viridis); settings: foliage application, 320 g/ha, three weeks after application
In short: as §1

barnyard grass [26] = assay: Test Example 4: herbicidal effect by soil treatment (Table 19, symbol H); format: in vivo, barnyard grass (Echinochloa crus-galli); settings: amount of applied herbicide 320 g/ha
In short: as §3

redroot pigweed [27] = assay: Test Example 5: herbicidal effect by foliage application, plastic box (Table 20, symbol N); format: in vivo, redroot pigweed (Amaranthus retroflexus); settings: foliage application, 320 g/ha, three weeks after application
In short: as §1

Chinese sprangletop = assay: Test Example 3: herbicidal effect by foliage application, Wagner pot (Table 18, symbol D); format: in vivo, chinese sprangletop (Leptochloa chinensis); settings: 320 g/ha
In short: as §4

## CCCC(=O)Oc1c(C)nn(C)c(=O)c1-c1c(-c2ccc(F)cc2OC)sc2cc(Cl)ccc12 [3-044]
Chickweed [1]
  P: chickweed, herbicidal effect grade: 5 (Herbicidal rate of 90% or more (almost completely withered))
Late watergrass
  Herbicidal effect, A: late watergrass: 3 (Herbicidal rate of 40% or more and less than 70%)
Italian ryegrass [2]
  K: Italian ryegrass, herbicidal effect grade: 0 (Herbicidal rate of 5% or less (almost no effect))
False cleavers [3]
  Q: false cleavers, herbicidal effect grade: 4 (Herbicidal rate of 70% or more and less than 90%)
Wild oat [4]
  I: wild oat, herbicidal effect grade: 0 (Herbicidal rate of 5% or less (almost no effect))
Japanese bulrush
  Herbicidal effect, B: Japanese bulrush: 0 (Herbicidal rate of 5% or less (almost no effect))
False cleavers [5]
  Q: false cleavers, herbicidal effect grade: 4 (Herbicidal rate of 70% or more and less than 90%)
Velvetleaf [6]
  M: velvetleaf, herbicidal effect grade: 2 (Herbicidal rate of 20% or more and less than 40%)
Italian ryegrass [7]
  K: Italian ryegrass, herbicidal effect grade: 0 (Herbicidal rate of 5% or less (almost no effect))
Chickweed [8]
  P: chickweed, herbicidal effect grade: 4 (Herbicidal rate of 70% or more and less than 90%)
Windgrass [9]
  L: windgrass, herbicidal effect grade: 5 (Herbicidal rate of 90% or more (almost completely withered))
oval-leafed pondweed
  Herbicidal effect, C: oval-leafed pondweed: 0 (Herbicidal rate of 5% or less (almost no effect))
Lambsquarters [10]
  O: lambsquarters, herbicidal effect grade: 3 (Herbicidal rate of 40% or more and less than 70%)
Rice flat sedge
  herbicidal effect on rice flat sedge (E): 3 (Herbicidal rate of 40% or more and less than 70%)
Redroot pigweed [11]
  N: redroot pigweed, herbicidal effect grade: 4 (Herbicidal rate of 70% or more and less than 90%)
Windgrass [12]
  L: windgrass, herbicidal effect grade: 3 (Herbicidal rate of 40% or more and less than 70%)
Persian speedwell [13]
  R: persian speedwell, herbicidal effect grade: 3 (Herbicidal rate of 40% or more and less than 70%)
Persian speedwell [14]
  R: persian speedwell, herbicidal effect grade: 3 (Herbicidal rate of 40% or more and less than 70%)
Southern crabgrass [15]
  F: southern crabgrass, herbicidal effect grade: 1 (Herbicidal rate of 5% or more and less than 20%)
Lambsquarters [16]
  O: lambsquarters, herbicidal effect grade: 4 (Herbicidal rate of 70% or more and less than 90%)
Green foxtail [17]
  G: green foxtail, herbicidal effect grade: 1 (Herbicidal rate of 5% or more and less than 20%)
Blackgrass [18]
  J: blackgrass, herbicidal effect grade: 5 (Herbicidal rate of 90% or more (almost completely withered))
Velvetleaf [19]
  M: velvetleaf, herbicidal effect grade: 4 (Herbicidal rate of 70% or more and less than 90%)
Barnyard grass [20]
  herbicidal effect on barnyard grass (H): 5 (Herbicidal rate of 90% or more (almost completely withered))
Southern crabgrass [21]
  F: southern crabgrass, herbicidal effect grade: 3 (Herbicidal rate of 40% or more and less than 70%)
Barnyard grass [22]
  H: barnyard grass, herbicidal effect grade: 5 (Herbicidal rate of 90% or more (almost completely withered))
Wild oat [23]
  I: wild oat, herbicidal effect grade: 4 (Herbicidal rate of 70% or more and less than 90%)
Blackgrass [24]
  J: blackgrass, herbicidal effect grade: 0 (Herbicidal rate of 5% or less (almost no effect))
Green foxtail [25]
  G: green foxtail, herbicidal effect grade: 4 (Herbicidal rate of 70% or more and less than 90%)
Barnyard grass [26]
  H: barnyard grass, herbicidal effect grade: 3 (Herbicidal rate of 40% or more and less than 70%)
Redroot pigweed [27]
  N: redroot pigweed, herbicidal effect grade: 3 (Herbicidal rate of 40% or more and less than 70%)
Chinese sprangletop
  herbicidal effect on Chinese sprangletop (D): 0 (Herbicidal rate of 5% or less (almost no effect))

— patent publication US20230085307A1, “PYRIDAZINONE COMPOUND AND HERBICIDE” (NISSAN CHEMICAL CORPORATION, priority 2019, published 2023)
